# Test results taken from ChEMBL document CHEMBL1133460, “Synthesis and biological evaluation of certain alpha,beta-unsaturated ketones and their corresponding fused pyridines as antiviral and cytotoxic agents” (J Med Chem, 2000).
# Where “and” joins values, the source holds several entries; their conditions need not be identical. Equal values may be shown once. Calls of active or inactive are those of the source. The rule behind the calls is not given here.
# Assays:
# Human alphaherpesvirus 1 [1] = assay: Minimum antiviral concentration proved to be lethal to viral population in uM; type: functional
# Human alphaherpesvirus 1 [2] = assay: Minimum antiviral concentration proved to be lethal to viral population in ug/mL.; type: functional
# Human alphaherpesvirus 1 [3] = assay: Concentration which caused 50% loss of the monolayer present around the viral plaques in uM; type: functional, organism-based
# Human alphaherpesvirus 1 [4] = assay: Concentration which caused 50% loss of the monolayer present around the viral plaques in ug/mL.; type: functional, organism-based
# Human alphaherpesvirus 1 [5] = assay: In vitro antiviral activity against Herpes Simplex-1 virus (HSV-1) expressed as percent reduction in the number of viral plaques; type: functional; design: concentration or dose not given beside the values
# MT4 = assay: In vitro inhibitory activity against uninfected T4 cells; type: functional, cell-based; conditions: Homo sapiens
# T4 = assay: (§1) In vitro effective concentration against HIV-1 cytopathic effect in T4 cells; Inactive; type: functional, cell-based; conditions: Homo sapiens
# Tumor cell line [6] = assay: In vitro for median growth inhibitory concentration against colon cancer cell lines; type: functional; conditions: Homo sapiens
# Tumor cell line [7] = assay: In vitro for median growth inhibitory concentration against melanoma cell lines; type: functional; conditions: Homo sapiens
# [8] = test system: Panel leukemia (Carcinoma cell lines); assay: In vitro growth inhibitory concentration against leukemia tumor cell lines; type: functional; conditions: Homo sapiens
# [9] = test system: Panel melanoma (Carcinoma cell lines); assay: In vitro growth inhibitory concentration against melanoma cancer cell lines; type: functional; conditions: Homo sapiens
# [10] = test system: Panel renal (Carcinoma cell lines); assay: In vitro growth inhibitory concentration against renal cancer cell lines; type: functional; conditions: Homo sapiens
# Tumor cell line [11] = assay: In vitro for growth inhibitory concentration against non small lung cancer cell lines; type: functional; conditions: Homo sapiens
# Breast cancer cell line [12] = assay: In vitro growth inhibitory concentration against breast cancer cell lines; type: functional; conditions: Homo sapiens
# [13] = In vitro growth inhibitory concentration against colon cancer tumor cell lines; type: functional; conditions: Homo sapiens
# Tumor cell line [14] = assay: In vitro for median growth inhibitory concentration against CNS cancer cell lines; type: functional; conditions: Homo sapiens
# Tumor cell line [15] = assay: In vitro for median growth inhibitory concentration against breast cancer cell lines; type: functional; conditions: Homo sapiens
# Tumor cell line [16] = assay: In vitro for median growth inhibitory concentration against non small lung cancer cell lines; type: functional; conditions: Homo sapiens
# Tumor cell line [17] = assay: In vitro for median growth inhibitory concentration against ovarian cancer cell lines; type: functional; conditions: Homo sapiens
# Tumor cell line [18] = assay: In vitro for median growth inhibitory concentration against prostate cancer cell lines; type: functional; conditions: Homo sapiens
# Tumor cell line [19] = assay: In vitro for median growth inhibitory concentration against renal cancer cell lines; type: functional; conditions: Homo sapiens
# Ovarian cancer cell line [20] = assay: In vitro growth inhibitory concentration against ovarian cancer cell lines; type: functional; conditions: Homo sapiens
# [21] = test system: Panel CNS (Carcinoma cell lines); assay: In vitro growth inhibitory concentration against CNS cancer cell lines; type: functional; conditions: Homo sapiens
# Tumor cell line [22] = assay: In vitro for median growth inhibitory concentration against leukemia; type: functional; conditions: Homo sapiens
# [23] = test system: Human immunodeficiency virus 1; assay: as §1; type: functional, organism-based
# NSCLC [24] = assay: In vitro growth inhibitory concentration against non-small-cell lung cancer; type: functional; conditions: Homo sapiens
# [25] = test system: Panel prostate (Carcinoma cell lines); assay: In vitro growth inhibitory concentration against prostate cancer cell lines; type: functional; conditions: Homo sapiens
# [26] = test system: Panel melanoma (Carcinoma cell lines); assay: In vitro median growth inhibitory concentration against melanoma cell lines; type: functional; conditions: Homo sapiens
# NSCLC [27] = assay: In vitro median growth inhibitory concentration against non-small-cell lung cancer; type: functional; conditions: Homo sapiens
# Ovarian cancer cell line [28] = assay: In vitro median growth inhibitory concentration against ovarian cancer cell lines; type: functional; conditions: Homo sapiens
# [29] = test system: Panel prostate (Carcinoma cell lines); assay: In vitro median growth inhibitory concentration against prostate cancer cell lines; type: functional; conditions: Homo sapiens
# [30] = test system: Panel renal (Carcinoma cell lines); assay: In vitro median growth inhibitory concentration against renal cancer cell lines; type: functional; conditions: Homo sapiens
# Homo sapiens = species: Homo sapiens; assay: Selectivity ratio between the full panel MG-MID and leukemia subpanel MG-MID was determined.; type: functional
# [31] = test system: Panel leukemia (Carcinoma cell lines); assay: In vitro median growth inhibitory conc. against leukemia was estimated.; type: functional; conditions: Homo sapiens
# [32] = test system: Panel CNS (Carcinoma cell lines); assay: In vitro median growth inhibitory concentration against CNS cancer cell lines; type: functional; conditions: Homo sapiens
# Breast cancer cell line [33] = assay: In vitro median growth inhibitory concentration against breast cancer cell lines; type: functional; conditions: Homo sapiens
# [34] = In vitro median growth inhibitory concentration against colon cancer cell lines; type: functional; conditions: Homo sapiens
# [35] = Full panel mean-graph midpoint (MG-MID)
# Tumor cell line [36] = assay: Median lethal concentration was estimated; type: ADME, cell-based; conditions: human
# [37] = Full panel mean-graph midpoint (MG-MID).
# Tumor cell line [38] = assay: In vitro for median growth inhibitory conc. against leukemia (compounds full panel MG-MID/leukemia subpanel MG-MID); type: functional; conditions: Homo sapiens
# [39] = In vitro effective concentration against HIV-1 cytopathic effect in T4 cells; type: functional, cell-based; conditions: Homo sapiens
# [40] = Therapeutic index (IC50/EC50) was determined; conditions: read-out: TI50
# Human alphaherpesvirus 1 [41] = assay: concentration caused 50% loss of the monolayer present around the viral plaques in ug/mL.; type: functional, organism-based
# Human alphaherpesvirus 1 [42] = assay: 50% loss of the monolayer present around the viral plaques in uM; type: functional, organism-based
compound,measurement,setting,value
CN1C/C(=C\c2cccs2)C(=O)/C(=C/c2cccs2)C1,MAC,Human alphaherpesvirus 1 [1],3.3 µM
same,MAC,Human alphaherpesvirus 1 [2],0.1 µg/mL
same,IC50,Human alphaherpesvirus 1 [3],0.66 µM
same,IC50,Human alphaherpesvirus 1 [4],0.2 µg/mL
same,Reduction,Human alphaherpesvirus 1 [5],33%
same,IC50,MT4,15.2 µM
same,Inhibition,T4,inactive
same,GI50,Tumor cell line [6],23.7 µM
same,GI50,Tumor cell line [7],34.6 µM
same,TGI,[8],51.6 µM
same,TGI,[9],84.1 µM
same,TGI,[10],70.4 µM
same,TGI,Tumor cell line [11],90.1 µM
same,TGI,Breast cancer cell line [12],75.4 µM
same,TGI,[13],72.2 µM
same,GI50,Tumor cell line [14],36.6 µM
same,GI50,Tumor cell line [15],28.7 µM
same,GI50,Tumor cell line [16],36.5 µM
same,GI50,Tumor cell line [17],23.5 µM
same,GI50,Tumor cell line [18],23.9 µM
same,GI50,Tumor cell line [19],24.2 µM
same,TGI,Ovarian cancer cell line [20],81.4 µM
same,TGI,[21],82.7 µM
same,GI50,Tumor cell line [22],10.6 µM
CN1C/C(=C\c2ccc(Cl)cc2)C(=O)/C(=C/c2ccc(Cl)cc2)C1,MAC,Human alphaherpesvirus 1 [1],0.07 µM
same,MAC,Human alphaherpesvirus 1 [2],0.02 µg/mL
same,IC50,Human alphaherpesvirus 1 [3],0.69 µM
same,IC50,Human alphaherpesvirus 1 [4],0.2 µg/mL
same,Reduction,Human alphaherpesvirus 1 [5],93%
CN1C/C(=C\c2cccs2)C(O)/C(=C/c2cccs2)C1 (centres undefined),EC50,[23],Not Active
same,IC50,MT4,126 µM
same,TGI,[8],78.1 µM
same,TGI,[9],> 100 µM
same,TGI,NSCLC [24],> 100 µM
same,TGI,[25],> 100 µM
same,TGI,[10],> 100 µM
same,GI50,[26],92.5 µM
same,GI50,NSCLC [27],83.9 µM
same,GI50,Ovarian cancer cell line [28],81.4 µM
same,GI50,[29],> 100 µM
same,GI50,[30],96.2 µM
same,Ratio,Homo sapiens,2.4
same,TGI,Breast cancer cell line [12],96.8 µM
same,TGI,[13],> 100 µM
same,GI50,[31],32.5 µM
same,GI50,[32],> 100 µM
same,GI50,Breast cancer cell line [33],84.3 µM
same,GI50,[34],85.8 µM
same,TGI,Ovarian cancer cell line [20],> 100 µM
same,TGI,[21],> 100 µM
same,MG-MID,[35],77.1 µM and 97.7 µM
CN1C/C(=C\c2cccs2)C2=NN(c3ccccc3)C(c3cccs3)C2C1 (centres undefined),EC50,[23],Not Active
same,IC50,MT4,9.1 µM
same,TGI,[8],52.2 µM
same,TGI,[9],> 100 µM
same,TGI,NSCLC [24],> 100 µM
same,TGI,[25],> 100 µM
same,TGI,[10],> 100 µM
same,GI50,[26],42.5 µM
same,GI50,NSCLC [27],20.8 µM
same,GI50,Ovarian cancer cell line [28],24.2 µM
same,GI50,[29],19.3 µM
same,GI50,[30],65.3 µM
same,LC50,Tumor cell line [36],95.8 µM
same,Ratio,Homo sapiens,3.9
same,TGI,Breast cancer cell line [12],> 100 µM
same,TGI,[13],87.1 µM
same,GI50,[31],2.2 µM
same,GI50,[32],35.7 µM
same,GI50,Breast cancer cell line [33],23.6 µM
same,GI50,[34],3.8 µM
same,MG-MID,[37],8.5 µM
same,TGI,Ovarian cancer cell line [20],> 100 µM
same,TGI,[21],> 100 µM
same,MG-MID,[35],72.9 µM
COc1ccc(/C=C2\CN(C)CC3=C2OC(N)=C(C#N)C3c2ccc(OC)cc2)cc1 (centres undefined),EC50,[23],Not Active
same,IC50,MT4,30.4 µM
same,GI50,Tumor cell line [6],41.2 µM
same,GI50,Tumor cell line [7],70.7 µM
same,TGI,[8],49.9 µM
same,TGI,[9],93.9 µM
same,TGI,[25],> 100 µM
same,TGI,[10],96.9 µM
same,TGI,Tumor cell line [11],95.5 µM
same,TGI,Breast cancer cell line [12],93.8 µM
same,TGI,[13],97.4 µM
same,GI50,Tumor cell line [38],9.1 µM
same,GI50,Tumor cell line [14],60.5 µM
same,GI50,Tumor cell line [15],48.6 µM
same,GI50,Tumor cell line [16],36.7 µM
same,GI50,Tumor cell line [17],38.1 µM
same,GI50,Tumor cell line [18],79.4 µM
same,GI50,Tumor cell line [19],40.4 µM
same,MG-MID,[37],33.3 µM
same,TGI,Ovarian cancer cell line [20],> 100 µM
same,TGI,[21],> 100 µM
same,MG-MID,[35],85.6 µM
CN1C/C(=C\c2ccncc2)C(=O)/C(=C/c2ccncc2)C1,EC50,[39],64.7 µM
same,IC50,MT4,> 200 µM
same,selectivity ratio,[40],> 3.09
CN1CC2=C(N=C(S)NC2c2cccs2)/C(=C/c2cccs2)C1 (centres undefined),IC50,Human alphaherpesvirus 1 [41],0.15 µg/mL
same,MAC,Human alphaherpesvirus 1 [1],0.29 µM
same,MAC,Human alphaherpesvirus 1 [2],0.1 µg/mL
same,Reduction,Human alphaherpesvirus 1 [5],27%
same,EC50,[23],Not Active
same,IC50,MT4,34 µM
same,TGI,[8],69.8 µM
same,TGI,[9],> 100 µM
same,TGI,NSCLC [24],> 100 µM
same,TGI,[25],> 100 µM
same,TGI,[10],> 100 µM
same,GI50,[26],60.5 µM
same,GI50,NSCLC [27],67.2 µM
same,GI50,Ovarian cancer cell line [28],65.5 µM
same,GI50,[29],> 100 µM
same,GI50,[30],75 µM
same,Ratio,Homo sapiens,2.4
same,TGI,Breast cancer cell line [12],98.1 µM
same,TGI,[13],> 100 µM
same,GI50,[31],22.4 µM
same,GI50,[32],76.1 µM
same,GI50,Breast cancer cell line [33],45.1 µM
same,GI50,[34],70.5 µM
same,IC50,Human alphaherpesvirus 1 [42],0.58 µM
same,TGI,Ovarian cancer cell line [20],> 100 µM
same,TGI,[21],> 100 µM
same,MG-MID,[35],53.5 µM and 95.8 µM
COc1ccc(/C=C2\CN(C)C/C(=C\c3ccc(OC)cc3)C2O)cc1,MAC,Human alphaherpesvirus 1 [1],0.06 µM
same,MAC,Human alphaherpesvirus 1 [2],0.02 µg/mL
same,IC50,Human alphaherpesvirus 1 [3],0.12 µM
same,IC50,Human alphaherpesvirus 1 [4],0.04 µg/mL
same,Reduction,Human alphaherpesvirus 1 [5],58%
CN1C/C(=C\c2cccs2)c2nc(O)c(C#N)c(-c3cccs3)c2C1,EC50,[23],Not Active
same,IC50,MT4,> 200 µM
